Consider six molecules from ChEMBL document CHEMBL3045282, “Production of phytotoxins by Phoma exigua var. exigua, a potential mycoherbicide against perennial thistles” (J Agric Food Chem, 2008).

Structures are written as SMILES. Calls of active or inactive are those of the source. The calls are words filed in the database; no cut-off is given here.

Experiment [1] deals with Cirsium arvense. In words: Herbicidal activity against Cirsium arvense (Canada thistle) assessed as induction of leaf necrotic lesions measured 48 hr post compound treatment by leaf disk- puncture bioassay.
The test system of experiment [2] is Sonchus arvensis. In words: Herbicidal activity against Sonchus arvensis (field sow-thistle) assessed as induction of leaf necrotic lesions measured 48 hr post compound treatment by leaf disk- puncture bioassay.

As for `C=C1[C@@H](C)[C@H]2[C@H](Cc3ccccc3)NC(=O)[C@]23C(=O)/C=C/[C@H](O)CCC[C@@H](C)C/C=C/[C@H]3[C@@H]1O`, the result in experiment [1] and in experiment [2] was Active.

Turning to `O=Cc1ccc(O)cc1`, the outcome in experiment [1] and in experiment [2] was inactive.

With `C[C@H]1C/C=C/[C@H]2[C@@H]3O[C@]3(C)[C@@H](C)[C@H]3[C@H](Cc4ccccc4)NC(=O)[C@]32OC(=O)/C=C/[C@@H](O)CCC1`, the outcome in experiment [1] and in experiment [2] was Active.

As for `C=C1[C@@H](C)[C@H]2[C@H](Cc3ccccc3)NC(=O)[C@]23OC(=O)/C=C/[C@H](O)CCC[C@@H](C)C/C=C/[C@H]3[C@@H]1O`, the result in experiment [1] and in experiment [2] was Active.

`C[C@H]1C/C=C/[C@H]2C=C(CO)[C@@H](C)[C@H]3[C@H](Cc4ccccc4)NC(=O)[C@]32OC(=O)/C=C/[C@H](O)CCC1`: the result in experiment [1] and in experiment [2] was Active.

As for `C=C1[C@@H](C)[C@H]2[C@H](Cc3ccccc3)NC(=O)[C@]23OC(=O)/C=C/CC(O)CC[C@@H](C)C/C=C/[C@H]3[C@@H]1O` (stereo partly specified), the outcome in experiment [1] was Active.
